Source: paper PMC5845537 (Frontiers in Pharmacology, 2018)

Assays:
Long-Evans rats = assay: Attentional set-shifting task (AST) in subchronic PCP-treated rats; type: in vivo, rat
Protocol: (§1) Subchronic PCP treatment: The subPCP administration regimen used in rats was conducted as described in ([Goetghebeur and Dias, 2009]), which is a reliable method for inducing deficits in our hands. Rats in the subPCP experiments received injections of 5 mg/mL PCP or vehicle (saline) s.c. at a 1 mL/kg injection volume twice per day for 7 days. […] The mouse subPCP regimen was conducted as described in [Pedersen et al. (2014)]. Briefly, mice received vehicle or PCP (1.3 mg/mL concentration, 10 mL/kg injection volume) s.c once per day for 14 days followed by a 7-day washout prior to experimentation.
Each test used male Long-Evans rats (Charles River, United States) aged 5–6 weeks when arriving at the research facility.
The attentional set-shifting test (AST) methods used here were adapted from [Goetghebeur and Dias (2009)]. The apparatus used for the AST test was a 44 cm × 64 cm × 30 cm black non-transparent Perspex test box, divided into 3 equal-sized areas (a starting area separated from a choice area subdivided in two). In the choice area, two 11 cm diameter terracotta pots were placed recessed into the box floor (with a 2 cm lip remaining above the floor) and separated by a divider. Odor (oils from The Body Shop®, United Kingdom) and media cues (not previously presented to the rats) were added to the pots.
Beginning on day 3 after the cessation of PCP administration, rats were subjected to a habituation period and trained to dig for a diet reward (half a Honey Loop cereal, Nestlé®) in terracotta pots filled with sawdust. On day 7 of PCP washout, rats were subjected to a single training session in which they were required to discriminate between two pots in order to find the reward. These discriminations were either based on differences in the digging media or the pot’s odor. On day 8 rats were presented with a series of increasingly difficult discriminations: a simple discrimination (SD), a compound discrimination (CD), two intra-dimensional shifts (ID1, ID2), an intra-dimensional shift reversal (ID2R), an extra-dimensional shift (ED) and an extra-dimensional shift reversal (EDR; see Table 1). Rats were required to meet a training criterion before moving on to a new discrimination type (for specifics, see Statistical Analysis, below).
The first trial of each discrimination stage was a discovery trial in which rats were allowed to dig in both pots, and to self-correct if digging in the wrong pot. Rats were only given one discovery trial. The discovery trial was included in the trials to criterion if the rat dug first in the correct pot, but not if the rat self-corrected an incorrect initial dig.
In the acute vortioxetine study, prior to the start of behavioral experiments on Day 8 of washout from PCP treatment, animals were randomly administered either 20% CD (Veh), […], or 64 mg/kg modafinil 30 min p.o. as described above (included as a positive control). Thus, the treatment groups in the acute vortioxetine study were as follows: Veh/Veh, PCP/Veh, PCP/1 mg/kg vortioxetine, PCP/3 mg/kg vortioxetine, PCP/10 mg/kg vortioxetine, or PCP/64 mg/kg modafinil.
Food dosing lasted from the first day of sub-chronic PCP administration and until the last day of the washout period (total of 14 days). After the end of the washout period where behavioral testing started, rats were fed with the same conditioned diet, however, under food restriction (∼11 g of diet per day per rat). In addition, some PCP-treated animals were fed vehicle food, but received acute injections of either 10 mg/kg vortioxetine, or 64 mg/kg modafinil, as described above. The treatment groups for the subchronic vortioxetine administration study were as follows: Veh/Veh, PCP/Veh, PCP/0.22 g/kg vortioxetine food, PCP/1.8 g/kg vortioxetine food, PCP/10 mg/kg vortioxetine 1 h s.c., or PCP/64 mg/kg 30 min p.o.
A third experiment was conducted to examine the effects of acute SERT inhibition or 5-HT3 receptor antagonism on subPCP-induced AST impairments. […]

Sprague-Dawley rats = assay: Rat object recognition (OR) task after subchronic PCP; type: in vivo; details: p < 0.05
Protocol: as §1
The behavioral procedures for the rat OR task were conducted as described in [du Jardin et al. (2014)]. […] OR task sessions were recorded by a digital camera situated above the open field. Exploration time for each object was recorded with a stopwatch from the videos. […]
The primary dependent measure for the OR and object placement tasks was a novel object or novel placement preference score, which were calculated from raw object investigation times using the following equation: Preference Score = ITN/(ITN + ITF)^∗100, where ITN represents the investigation time for the novel object or placement, and ITF represents the investigation for the familiar object or placement. Total exploration times from the information and test trials were analyzed for OP and OR experiments. […]

[1] = subchronic vortioxetine study, subPCP vs Veh/Veh, p < 0.001
[2] = subchronic high-dose 1.8 g vortioxetine/kg food weight p.o., p < 0.001
[3] = subchronic low-dose 0.18 g vortioxetine/kg food weight p.o., p < 0.001
[4] = subchronic vortioxetine study, acute 10 mg/kg 1 h s.c., p < 0.001

Row | SMILES | trials to reach criterion, EDR discrimination (Long-Evans rats; acute vortioxetine study, subPCP/vehicle vs vehicle/vehicle) | trials to reach criterion, ED discrimination (Long-Evans rats; acute vortioxetine study, subPCP/vehicle vs vehicle/vehicle, PCP 5 mg/kg s.c. twice per day 7 days, 7-day washout, p < 0.01) | trials to reach criterion, EDR discrimination (Long-Evans rats; ondansetron/escitalopram study, subPCP vs vehicle/vehicle) | trials to reach criterion, ED discrimination (Long-Evans rats; ondansetron/escitalopram study, subPCP vs vehicle/vehicle, p < 0.001) | trials to reach criterion, ED discrimination (Long-Evans rats; [1]) | trials to reach criterion, EDR discrimination (Long-Evans rats; [1]) | OR performance (novel object preference score) (Sprague-Dawley rats; subPCP alone vs vehicle-treated controls) | reversal of subPCP-induced impairment, ED discrimination (trials to criterion) (Long-Evans rats; acute vortioxetine study, 1 mg/kg 1 h s.c., vs PCP/Veh) | reversal of subPCP-induced impairment, ED discrimination (trials to criterion) (Long-Evans rats; acute vortioxetine study, 3 mg/kg 1 h s.c., vs PCP/Veh) | reversal of subPCP-induced impairment, ED discrimination (trials to criterion) (Long-Evans rats; acute vortioxetine study, 10 mg/kg 1 h s.c., vs PCP/Veh) | reversal of subPCP-induced impairment, EDR discrimination (trials to criterion) (Long-Evans rats; acute vortioxetine study, acute 1, 3, 10 mg/kg 1 h s.c., vs PCP/Veh) | attenuation of subPCP-induced impairment, ED discrimination (Long-Evans rats; [2]) | attenuation of subPCP-induced impairment, EDR discrimination (Long-Evans rats; [2]) | attenuation of subPCP-induced impairment, ED discrimination (Long-Evans rats; [3]) | attenuation of subPCP-induced impairment, EDR discrimination (Long-Evans rats; [3]) | normalization of AST performance in subPCP-treated rats, ED (Long-Evans rats; [4]) | normalization of AST performance in subPCP-treated rats, EDR (Long-Evans rats; [4]) | attenuation of subPCP-induced OR impairment (preference score) (Sprague-Dawley rats; subPCP-treated rats, acute 10 mg/kg 1 h s.c.)
1 | Cl.c1ccc(C2(N3CCCCC3)CCCCC2)cc1 [PCP, 1-(1-phenylcyclohexyl)-piperidine hydrochloride] | significant increases | significant increase | failed to induce a significant increase | significant increase | significant increase | significant increase | significant impairments | – | – | – | – | – | – | – | – | – | – | –
2 | Cc1ccc(Sc2ccccc2N2CCNCC2)c(C)c1 [vortioxetine] | – | – | – | – | – | – | – | significantly reversed | significantly reversed | significantly reversed | neither acute vortioxetine nor modafinil significantly reversed | significantly attenuated | significantly attenuated | significantly attenuated | significantly attenuated | significant normalization | significant normalization | significantly attenuated
